{"source": "patent US20220363667A1", "about": "(Nippon Chemiphar Co., Ltd., priority 2018, published 2022)", "note": "“Also recorded” adds a separate entry of the source.", "data": [{"test_system": "SD rats", "assay": "Rat formalin test", "assay_type": "in vivo", "conditions": "po, 30 mg/kg orally once, pain behavior time from 15 to 30 minutes after formalin administration vs vehicle group, read-out: Inhibition ratio (pain behavior inhibition ratio)", "description": "30 mg/kg of a vehicle or a test substance was orally administrated to SD rats once, and according to the method described in McNamara C. R., Mandel-Brehm J., Bautista D. M., Siemens J., Deranian K. L., Zhao M., Hayward N. J., Chong J. A., Julius D., Moran M. M., Fanger C. M.: TRPA1 mediates formalin-induced pain. Proc. Natl. Acad. Sci. U.S.A. 104, 2007, 13525-13530, 50 μL of a 2.0% formalin solution as a pain-inducing substance was subcutaneously administered under the skin of the plantar plate of the right hind limb of each rat.\nRegarding the evaluation, the pain behavior inhibition ratio was determined from the pain behavior time of each test substance-administered group with respect to the pain behavior time of the vehicle-administered group for 15 minutes measured from 15 minutes to 30 minutes after the administration.", "units": {"inhibition in vivo at 30 mg/kg": "%"}, "values": [{"smiles": "O=C(N[C@@H]1CCN(c2ccc(F)c(C(F)(F)F)c2)C1)[C@H]1C[C@@H]1c1nc2ccccc2[nH]1", "note": "[Example 57, (1S,2S)-2-(1H-benzo[d]imidazol-2-yl)-N—((R)-1-(4-fluoro-3-(trifluoromethyl)phenyl)pyrrolidin-3-yl)cyclopropane-1-carboxyamide]", "inhibition in vivo at 30 mg/kg": "< 10"}, {"smiles": "Cn1ncc2cc(CC(=O)N[C@@H]3CCN(c4ccc(C(F)(F)F)nc4)C3)ccc21", "note": "[Example 144, (R)-2-(1-methyl-1H-indazol-5-yl)-N-(1-(6-(trifluoromethyl)pyridin-3-yl)pyrrolidin-3-yl)acetamide]", "inhibition in vivo at 30 mg/kg": "≥ 20"}]}, {"test_system": "mouse PSNL model", "assay": "Mechanical allodynia in mouse partial sciatic nerve ligation (PSNL) model", "assay_type": "in vivo", "conditions": "30 mg/kg orally administered, compared with the vehicle group", "from_the_text": "The production of a mouse PSNL model was achieved according to the method of Seltzer et al. A mouse was subjected to inhalation anesthesia with isoflurane. The femoral region of the mouse was shaved and disinfected with isodine. The skin on a thighbone of the mouse was incised, the fascia directly under the skin was cut, and the muscle heads of the musculus biceps femoris were split. The sciatic nerve directly under the fascia was checked, and then the sciatic nerve was detached so as not to damage the nerve. The needle of a needle with 8-0 silk thread was passed through the sciatic nerve to penetrate therethrough, and the sciatic nerve was ligated for about ½ to ⅓ of the whole nerve. The skin was sutured, and the mouse was raised for about 7 days. […]\nThe measurement of the pain threshold was carried out after transferring the mice into a cage for measurement and waiting for the exploratory behavior to disappear. Regarding the pain threshold (paw withdrawal filament ((g)), the plantar plates of the mice were stimulated with von Frey filaments (Sttoelting Co.: TOUCH-TEST SENSORY EVLUATOR) having different stimulus intensities, and the presence or absence of an escape response was observed. The 50% threshold was calculated by an up-down method with reference to the method of Chaplan et al. (Quantitative assessment of tactile allodynia in the rat paw. J neurosci Methods, 53, 1994, 55-63). […]", "values": [{"smiles": "Cn1ncc2cc(CC(=O)N[C@@H]3CCN(c4ccc(C(F)(F)F)nc4)C3)ccc21", "note": "[Example 144, (R)-2-(1-methyl-1H-indazol-5-yl)-N-(1-(6-(trifluoromethyl)pyridin-3-yl)pyrrolidin-3-yl)acetamide]", "mechanical allodynia (pain threshold, von Frey filament test)": "inhibited mechanical allodynia statistically significantly; also recorded: suppressed statistically significantly"}]}, {"target": "T1, human Cav3.2 channels (Homo sapiens, UniProt O95180)", "T1 construct": "expressed in transfected cells", "T1 sequence (O95180 whole entry)": "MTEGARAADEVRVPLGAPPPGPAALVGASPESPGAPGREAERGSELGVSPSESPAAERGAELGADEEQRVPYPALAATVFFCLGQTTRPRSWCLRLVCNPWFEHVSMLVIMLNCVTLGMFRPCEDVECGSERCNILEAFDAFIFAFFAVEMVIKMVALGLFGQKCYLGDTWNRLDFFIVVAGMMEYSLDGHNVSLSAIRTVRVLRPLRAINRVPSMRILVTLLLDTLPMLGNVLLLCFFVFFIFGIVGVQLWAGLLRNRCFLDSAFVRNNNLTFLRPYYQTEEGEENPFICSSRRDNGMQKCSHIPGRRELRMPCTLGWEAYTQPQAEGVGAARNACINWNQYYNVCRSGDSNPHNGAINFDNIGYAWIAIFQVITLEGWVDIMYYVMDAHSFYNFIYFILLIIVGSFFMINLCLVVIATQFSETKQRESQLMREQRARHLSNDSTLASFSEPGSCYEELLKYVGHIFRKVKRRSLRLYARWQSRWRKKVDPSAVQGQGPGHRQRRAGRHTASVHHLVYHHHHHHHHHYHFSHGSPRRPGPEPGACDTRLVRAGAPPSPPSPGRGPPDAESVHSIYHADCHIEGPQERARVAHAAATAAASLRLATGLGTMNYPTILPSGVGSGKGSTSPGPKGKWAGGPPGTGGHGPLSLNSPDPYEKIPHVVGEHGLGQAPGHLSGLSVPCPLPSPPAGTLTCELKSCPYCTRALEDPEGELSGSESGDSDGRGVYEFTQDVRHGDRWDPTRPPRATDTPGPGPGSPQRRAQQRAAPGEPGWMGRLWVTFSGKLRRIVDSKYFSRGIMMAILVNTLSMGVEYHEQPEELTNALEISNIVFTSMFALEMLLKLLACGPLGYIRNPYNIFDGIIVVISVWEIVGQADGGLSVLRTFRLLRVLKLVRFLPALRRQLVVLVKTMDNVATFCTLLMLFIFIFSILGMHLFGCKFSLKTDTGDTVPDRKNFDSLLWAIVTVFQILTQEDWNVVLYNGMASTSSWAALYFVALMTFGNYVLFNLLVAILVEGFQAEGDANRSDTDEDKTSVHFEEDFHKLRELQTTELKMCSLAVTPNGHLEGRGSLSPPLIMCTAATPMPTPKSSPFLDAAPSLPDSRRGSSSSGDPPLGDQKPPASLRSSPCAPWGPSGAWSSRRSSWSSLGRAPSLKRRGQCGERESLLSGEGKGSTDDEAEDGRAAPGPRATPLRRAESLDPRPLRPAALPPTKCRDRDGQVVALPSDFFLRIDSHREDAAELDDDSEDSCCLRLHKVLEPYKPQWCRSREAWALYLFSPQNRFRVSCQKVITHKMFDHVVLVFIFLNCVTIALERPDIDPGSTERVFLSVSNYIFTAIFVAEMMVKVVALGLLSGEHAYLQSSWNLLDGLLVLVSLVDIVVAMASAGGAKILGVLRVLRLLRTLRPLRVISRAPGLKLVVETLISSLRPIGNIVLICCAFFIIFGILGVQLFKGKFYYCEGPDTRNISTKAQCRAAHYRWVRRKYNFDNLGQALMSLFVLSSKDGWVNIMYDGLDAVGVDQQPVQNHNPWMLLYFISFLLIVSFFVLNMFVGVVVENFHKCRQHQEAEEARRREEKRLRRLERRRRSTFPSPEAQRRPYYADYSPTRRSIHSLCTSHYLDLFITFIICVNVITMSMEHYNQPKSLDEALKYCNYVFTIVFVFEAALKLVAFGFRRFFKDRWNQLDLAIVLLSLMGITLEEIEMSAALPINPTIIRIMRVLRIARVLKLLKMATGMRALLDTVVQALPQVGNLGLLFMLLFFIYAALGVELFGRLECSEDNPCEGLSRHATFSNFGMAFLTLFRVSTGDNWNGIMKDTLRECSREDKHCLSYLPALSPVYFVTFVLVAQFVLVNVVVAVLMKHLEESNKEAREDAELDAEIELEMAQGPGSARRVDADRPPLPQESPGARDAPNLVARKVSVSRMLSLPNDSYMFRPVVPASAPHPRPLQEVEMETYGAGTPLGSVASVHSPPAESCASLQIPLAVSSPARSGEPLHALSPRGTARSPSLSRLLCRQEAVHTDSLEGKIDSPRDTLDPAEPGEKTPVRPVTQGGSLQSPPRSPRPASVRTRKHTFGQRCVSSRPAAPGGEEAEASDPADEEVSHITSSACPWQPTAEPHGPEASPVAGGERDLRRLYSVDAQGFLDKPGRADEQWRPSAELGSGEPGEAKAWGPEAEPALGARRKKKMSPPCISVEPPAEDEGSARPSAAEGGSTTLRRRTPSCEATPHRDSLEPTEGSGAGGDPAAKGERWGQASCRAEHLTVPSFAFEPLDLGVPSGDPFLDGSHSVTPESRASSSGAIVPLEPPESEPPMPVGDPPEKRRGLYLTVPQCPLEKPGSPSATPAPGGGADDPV", "assay": "T-type calcium blocking action: intracellular calcium concentration in cells steadily expressing human Cav3.2 channels", "assay_type": "cell-based", "conditions": "HEK293 cells steadily expressing human Cav3.2 channels; Fluo-4 AM fluorescence increase after KCl stimulus", "from_the_text": "(1) Construction of Cells Steadily Expressing Human Cav3.2 Channels\nA sequence obtained by adding HindIII site and a kozak sequence (GCCACC) to the 5′-side of human Cav3.2 channel ORF (Open Reading Frame) gene and adding a KpnI site to the 3′-side of the gene, was incorporated into pcDNA3.1 (+) (Thermo Fisher Scientific, #V790-20), and the plasmid was introduced into HEK293 cells (ATCC No. CRL-1573) according to the protocol of FuGENE (registered trademark) HD Transfection Reagent (Promega, #E2311).\n(2) Method for Measuring Intracellular Calcium Concentration\nThe cell strain steadily expressing human Cav3.2 channels as produced by the testing method (1) was seeded on a 96-well plate using DMEM including 10% FBS, and the cells were cultured for 48 hours under the conditions of 37° C. and 5% CO2. Subsequently, the medium was removed, and each of the wells were washed with buffer A and treated with 80 μL of a fluorescent dye solution including a mixed liquid of 22 μg of a fluorescent calcium indicator, Fluo-4 AM (Dojindo Molecular Technologies, Inc., #F311), 20 μL of dimethyl sulfoxide (DMSO), 1 μL of 10% Pluronic F-127 (Thermo Fisher Scientific, #P6866), and 4 mL of buffer A. After the cells were left to stand for 45 minutes at room temperature under light-shielded conditions, and then the cells were washed with buffer B. DMSO as a negative control and various test compound solutions each obtained by dissolving a test compound dissolved in DMSO, in buffer B so as to obtain a 10-fold concentration of the evaluation concentration, were introduced into respective wells. The final concentration of DMSO was adjusted to 0.1%. The cells were left to stand for another 15 minutes at room temperature under light-shielded conditions, and measurement was made using a microplate reader, EnVision (PerkinElmer Inc.) using the following method. First, the background fluorescence of each well was measured, subsequently an ionophore was introduced into each well, and the baseline fluorescence was measured. Subsequently, buffer B having 83.8 mM KCl added thereto was introduced, and an increase in fluorescence caused by calcium influx generated by the stimulus was measured for 10 seconds. The percentage inhibition was calculated from the maximum fluorescence increase value from the baseline, the logarithmic value of the test compound concentration and the inhibitory activity are plotted, and thereby the IC50 value was calculated. The measurement was carried out by observing the fluorescence at 510 nm that was emitted when the cells were irradiated with excitation light at 485 nm.\nBuffer A: 140 mM NaCl, 5 mM KCl, 1 mM MgCl2, 0.5 mM CaCl2, 10 mM Glucose, 10 mM HEPES, pH 7.3\nBuffer B: 137.9 mM Choline-Cl, 4.1 mM KCl, 1 mM MgCl2, 0.5 mM CaCl2, 10 mM Glucose, 10 mM HEPES, pH 7.3, equilibrium potential of potassium: −92 mV", "units": {"IC50": "nM"}, "values": [{"smiles": "N#Cc1ccc2[nH]c(C3CC3C(=O)N[C@@H]3CCN(c4ccc(C(F)(F)F)nc4)C3)nc2c1", "note": "(single isomer, unassigned) [Example 61A]", "IC50": 1100}, {"smiles": "N#Cc1ccc2[nH]c(C3CC3C(=O)N[C@@H]3CCN(c4ccc(C(F)(F)F)nc4)C3)nc2c1", "note": "(single isomer, unassigned) [Example 61B]", "IC50": 2200}, {"smiles": "O=C(Cc1ccc(C2CC2)cc1)N[C@@H]1CCN(c2cc(C(F)(F)F)c3nccn3c2)C1", "note": "[Example 20, (R)-2-(4-cyclopropylphenyl)-N-(1-(8-(trifluoromethyl)imidazo[1,2-a]pyridin-6-yl)pyrrolidin-3-yl)acetamide]", "IC50": "> 10000"}, {"smiles": "O=C(N[C@@H]1CCN(c2cncc(C(F)(F)F)c2)C1)[C@H]1C[C@@H]1c1nc2cc(F)c(F)cc2o1", "note": "[Example 45]", "IC50": 11}, {"smiles": "O=C(N[C@H]1CCN(c2ccc(C(F)(F)F)nc2)C1)[C@H]1C[C@@H]1c1nc2ccccc2[nH]1", "note": "[Example 55, (1S,25)-2-(1H-benzo[d]imidazol-2-yl)-N—((S)-1-(6-(trifluoromethyl)pyridin-3-yl)pyrrolidin-3-yl)cyclopropane-1-carboxyamide]", "IC50": 470}, {"smiles": "O=C(N[C@@H]1CCN(c2ncc(C(F)(F)F)cn2)C1)[C@H]1C[C@@H]1c1nc2ccccc2[nH]1", "note": "[Example 56, (1S,2S)-2-(1H-benzo[d]imidazol-2-yl)-N—((R)-1-(5-(trifluoromethyl)pyrimidin-2-yl)pyrrolidin-3-yl)cyclopropane-1-carboxyamide]", "IC50": 290}, {"smiles": "O=C(N[C@@H]1CCN(c2ccc(F)c(C(F)(F)F)c2)C1)[C@H]1C[C@@H]1c1nc2ccccc2[nH]1", "note": "[Example 57, (1S,2S)-2-(1H-benzo[d]imidazol-2-yl)-N—((R)-1-(4-fluoro-3-(trifluoromethyl)phenyl)pyrrolidin-3-yl)cyclopropane-1-carboxyamide]", "IC50": 20}, {"smiles": "O=C(N[C@@H]1CCN(c2ccc(F)c(C(F)(F)F)c2)C1)[C@H]1C[C@@H]1c1ncc2ccccc2n1", "note": "[Example 58, (1S,2S)—N—((R)-1-(4-fluoro-3-(trifluoromethyl)phenyl)pyrrolidin-3-yl)-2-(quinazolin-2-yl)cyclopropane-1-carboxyamide]", "IC50": 4400}, {"smiles": "CS(=O)(=O)c1cccc(N2CC[C@@H](NC(=O)[C@H]3C[C@@H]3c3nc4ccccc4[nH]3)C2)c1", "note": "[Example 59, (1S,2S)-2-(1H-benzo[d]imidazol-2-yl)-N—((R)-1-(3-(methylsulfonyl)phenyl)pyrrolidin-3-yl)cyclopropane-1-carboxyamide]", "IC50": 1800}, {"smiles": "N#Cc1cccc(N2CC[C@@H](NC(=O)[C@H]3C[C@@H]3c3nc4ccccc4[nH]3)C2)c1", "note": "[Example 60, (1S,2S)-2-(1H-benzo[d]imidazol-2-yl)-N—((R)-1-(3-cyanophenyl)pyrrolidin-3-yl)cyclopropane-1-carboxyamide]", "IC50": 470}, {"smiles": "O=C(N[C@@H]1CCN(c2ccnc(C(F)(F)F)c2)C1)[C@H]1C[C@@H]1c1nc2ccccc2[nH]1", "note": "[Example 62, (1S,2S)-2-(1H-benzo[d]imidazol-2-yl)-N—((R)-1-(2-(trifluoromethyl)pyridin-4-yl)pyrrolidin-3-yl)cyclopropane-1-carboxyamide]", "IC50": 410}, {"smiles": "COc1ncc(N2CC[C@@H](NC(=O)[C@H]3C[C@@H]3c3nc4ccccc4[nH]3)C2)cc1C(F)(F)F", "note": "[Example 67, (1S,2S)-2-(1H-benzo[d]imidazol-2-yl)-N—((R)-1-(6-methoxy-5-(trifluoromethyl)pyridin-3-yl)pyrrolidin-3-yl) cyclopropane-1-carboxyamide]", "IC50": 29}, {"smiles": "O=C(N[C@@H]1CCN(c2ccc(C(F)(F)F)nn2)C1)[C@H]1C[C@@H]1c1nc2ccccc2[nH]1", "note": "[Example 69, (1S,2S)-2-(1H-benzo[d]imidazol-2-yl)-N—((R)-1-(6-(trifluoromethyl)pyridazin-3-yl)pyrrolidin-3-yl)cyclopropane-1-carboxyamide]", "IC50": 1200}, {"smiles": "O=C(Cc1ccc(C2CC2)cc1)N[C@@H]1CCN(c2ccc(OCC(F)(F)F)nc2)C1", "note": "[Example 125, (R)-2-(4-cyclopropylphenyl)-N-(1-(6-(2,2,2-trifluoroethoxy)pyridin-3-yl)pyrrolidin-3-yl)acetamide]", "IC50": "> 10000"}, {"smiles": "COc1ncc(C(F)(F)F)cc1N1CC[C@@H](NC(=O)Cc2ccc(C3CC3)cc2)C1", "note": "[Example 128, (R)-2-(4-cyclopropylphenyl)-N-(1-(2-methoxy-5-(trifluoromethyl)pyridin-3-yl)pyrrolidin-3-yl)acetamide]", "IC50": "> 10000"}, {"smiles": "O=C(Cc1ccc(C2CC2)cc1)N[C@@H]1CCCN(c2ccc(C(F)(F)F)nc2)C1", "note": "[Example 130, (R)-2-(4-cyclopropylphenyl)-N-(1-(6-(trifluoromethyl)pyridin-3-yl)piperidin-3-yl)acetamide]", "IC50": "> 10000"}, {"smiles": "NC(C(=O)N[C@@H]1CCN(c2cncc(C(F)(F)F)c2)C1)c1ccc(C2CC2)cc1", "note": "(stereo partly drawn) [Example 137B, 2-amino-2-(4-cyclopropylphenyl)-N((R)-1-(5-(trifluoromethyl)pyridin-3-yl)pyrrolidin-3-yl)acetamide]", "IC50": 820}, {"smiles": "O=C(Cc1ccc(C2CC2)cc1)NC1CN(c2ccc(C(F)(F)F)cc2)C1", "note": "[Example 169, 2-(4-Cyclopropylphenyl)-N-(1-(4-(trifluoromethyl)phenyl)azetidin-3-yl)acetamide]", "IC50": "> 10000"}, {"smiles": "O=C(N[C@@H]1CCCN(c2cncc(C(F)(F)F)c2)C1)[C@H]1C[C@@H]1c1nc2ccccc2[nH]1", "note": "[Example 186, (1S,23)-2-(1H-benzo[d]imidazol-2-yl)-N—((R)-1-(5-(trifluoromethyl)pyridin-3-yl)piperidin-3-yl)cyclopropane-1-carboxyamide]", "IC50": 190}]}]}
